Laboratory results reported in US20200055839A1 (priority 2017, published 2020).

System: NL-RLuc virus
Experiment: Inhibition of HIV replication (NL-RLuc virus, luciferase readout in MT-2 cells)
Type: cell-based
Conditions: MT-2 cells infected with NL-RLuc virus, 5 days of incubation, 10% FBS, at least 2 experiments
In short: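 EC50 derived via median effect equation from at least 2 experiments, using luciferase expression as virus-growth readout. Replication-competent NL-RLuc reporter virus (nef partly replaced by Renilla luciferase) infected MT-2 cells with serial compound dilutions; 5-day incubation in RPMI 1640 plus 10% FBS.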

[1] = Human immunodeficiency virus 1, MT2, 120 h

## Cc1ncc(-c2ccc(OCCc3c(Cl)cccc3Cl)cc2)c(N2CCC(C)(C)CC2)c1[C@H](OC(C)(C)C)C(=O)O [Example 366, (2S)-2-(tert-butoxy)-2-(5-{4-[2-(2,6-dichlorophenyl)ethoxy]phenyl}-4-(4,4-dimethylpiperidin-1-yl)-2-methylpyridin-3-yl)acetic acid]
[1]
  EC50: 5 nM

## Cc1nc(-c2ccn(C)c2)c(-c2ccc(OCCc3ccc(F)cc3)cc2)c(N2CCC(C)(C)CC2)c1[C@H](OC(C)(C)C)C(=O)O [Example 48, (S)-2-(tert-Butoxy)-2-(4-(4,4-dimethylpiperidin-1-yl)-5-(4-(4-fluorophenethoxy)phenyl)-2-methyl-6-(1-methyl-1H-pyrrol-3-yl)pyridin-3-yl)acetic acid]
[1]
  EC50: 3 nM

## Cc1ncc(-c2cnc(OCCc3c(F)cccc3Cl)c(F)c2)c(N2CCC(C)(C)CC2)c1[C@H](OC(C)(C)C)C(=O)O [Example 239, (S)-2-(tert-Butoxy)-2-(6′-(2-chloro-6-fluorophenethoxy)-4-(4,4-dimethylpiperidin-1-yl)-5′-fluoro-6-methyl-[3, 3′-bipyridin]-5-yl)acetic acid]
[1]
  EC50: 3 nM

## Cc1ncc(-c2cnc(NCCc3ccc(F)cc3)c(F)c2)c(N2CCC(C)(C)CC2)c1[C@H](OC(C)(C)C)C(=O)O [Example 121, (S)-2-(tert-Butoxy)-2-(4-(4,4-dimethylpiperidin-1-yl)-5′-fluoro-6′-((4-fluorophenethyl)amino)-6-methyl-[3, 3′-bipyridin]-5-yl)acetic acid]
  EC50: 2 nM

## CC1(C)CCN(c2c(-c3ccc(OCCc4ccc(F)cc4)cc3)cnc(Cl)c2[C@H](OC(C)(C)C)C(=O)O)CC1 [Example 211, (S)-2-(tert-Butoxy)-2-(2-chloro-4-(4,4-dimethylpiperidin-1-yl)-5-(4-(4-fluorophenethoxy)phenyl)pyridin-3-yl)acetic acid]
[1]
  EC50: 3 nM

## Cc1ncc(-c2cnc(OCCc3cccc(F)c3)c(F)c2)c(N2CCC(C)(C)CC2)c1[C@H](OC(C)(C)C)C(=O)O [Example 119, (S)-2-(tert-Butoxy)-2-(4-(4,4-dimethylpiperidin-1-yl)-5′-fluoro-6′-(3-fluorophenethoxy)-6-methyl-[3, 3′-bipyridin]-5-yl)acetic acid]
[1]
  EC50: 1 nM

## Cc1nc(Nc2ccnc(F)c2)c(-c2ccc(OCCc3ccc(F)cc3)cc2)c(N2CCC(C)(C)CC2)c1[C@H](OC(C)(C)C)C(=O)O [Example 95, (S)-2-(tert-Butoxy)-2-(4-(4,4-dimethylpiperidin-1-yl)-5-(4-(4-fluorophenethoxy)phenyl)-6-((2-fluoropyridin-4-yl)amino)-2-methylpyridin-3-yl)acetic acid]
  EC50: 8 nM

## Cc1ncc(-c2ccc(N(C)C)nc2)c(N2CCC(C)(C)CC2)c1[C@H](OC(C)(C)C)C(=O)O [Example 111, (S)-2-(tert-Butoxy)-2-(6′-(dimethylamino)-4-(4,4-dimethylpiperidin-1-yl)-6-methyl-[3, 3′-bipyridin]-5-yl)acetic acid]
[1]
  EC50: 2 nM

## Cc1ncc(-c2ccc(OCCCC(C)C)cn2)c(N2CCC(C)(C)CC2)c1[C@H](OC(C)(C)C)C(=O)O [Example 345, (2S)-2-(tert-butoxy)-2-[4′-(4,4-dimethylpiperidin-1-yl)-6′-methyl-5-[(4-methylpentyl)oxy]-[2,3′-bipyridine]-5′-yl]acetic acid]
[1]
  EC50: 2 nM

## Cc1ncc(-c2ccc(OCCc3ccc(F)cc3)nc2)c(N2CCC(C)(C)CC2)c1[C@H](OC(C)(C)C)C(=O)O [Example 254, (S)-2-(tert-Butoxy)-2-(4-(4,4-dimethylpiperidin-1-yl)-6′-(4-fluorophenethoxy)-6-methyl-[3,3′-bipyridin]-5-yl)acetic acid]
[1]
  EC50: 0.6 nM

## CCc1ccc(CCOc2ccc(-c3cnc(C)c([C@H](OC(C)(C)C)C(=O)O)c3N3CCC(C)(C)CC3)nc2)cc1 [Example 322, (2S)-2-(tert-butoxy)-2-[4′-(4,4-dimethylpiperidin-1-yl)-5-[2-(4-ethylphenyl)ethoxy]-6′-methyl-[2,3′-bipyridine]-5′-yl]acetic acid]
[1]
  EC50: 0.7 nM

## Cc1ncc(-c2ccc(OCCc3cccc(Cl)c3)cc2)c(N2CCC(C)(C)CC2)c1[C@H](OC(C)(C)C)C(=O)O [Example 364, (2S)-2-(tert-butoxy)-2-(5-{4-[2-(3-chlorophenyl)ethoxy]phenyl}-4-(4,4-dimethylpiperidin-1-yl)-2-methylpyridin-3-yl)acetic acid]
[1]
  EC50: 2 nM

## Cc1ncc(-c2ccc3ccccc3c2)c(N2CCC(C)(C)CC2)c1[C@H](OC(C)(C)C)C(=O)O [Example 183, (2S)-2-(tert-Butoxy)-2-[4-(4,4-dimethylpiperidin-1-yl)-2-methyl-5-(naphthalen-2-yl)pyridin-3-yl]acetic acid]
[1]
  EC50: 6 nM

## Cc1nc(-c2cnc(C)c([C@H](OC(C)(C)C)C(=O)O)c2N2CCC(C)(C)CC2)ccc1OCCc1ccc(F)cc1 [Example 232, (S)-2-(tert-Butoxy)-2-(4′-(4,4-dimethylpiperidin-1-yl)-5-(4-fluorophenethoxy)-6, 6′-dimethyl-[2, 3′-bipyridin]-5′-yl)acetic acid]
[1]
  EC50: 6 nM

## Cc1ncc(-c2ccc(OCCc3ccc(F)cc3)c(C#N)c2)c(N2CCC(C)(C)CC2)c1[C@H](OC(C)(C)C)C(=O)O [Example 256, (S)-2-(tert-Butoxy)-2-(5-(3-cyano-4-(4-fluorophenethoxy)phenyl)-4-(4,4-dimethylpiperidin-1-yl)-2-methylpyridin-3-yl)acetic acid]
[1]
  EC50: 0.8 nM

## Cc1ncc(-c2cnc(OCCCc3ccccc3)c(F)c2)c(N2CCC(C)(C)CC2)c1[C@H](OC(C)(C)C)C(=O)O [Example 406, (2S)-2-(tert-butoxy)-2-[4-(4,4-dimethylpiperidin-1-yl)-5′-fluoro-6-methyl-6′-(3-phenylpropoxy)-[3,3′-bipyridine]-5-yl]acetic acid]
[1]
  EC50: 4 nM

## Cc1ncc(-c2cnc(OCCc3ccc(F)cc3)c(Cl)c2)c(N2CCC(C)(C)CC2)c1[C@H](OC(C)(C)C)C(=O)O [Example 250, (S)-2-(tert-Butoxy)-2-(5′-chloro-4-(4,4-dimethylpiperidin-1-yl)-6′-(4-fluorophenethoxy)-6-methyl-[3, 3′-bipyridin]-5-yl)acetic acid]
[1]
  EC50: 2 nM

## Cc1ncc(-c2ccc(C(F)(F)CC(C)C)nc2)c(N2CCC(C)(C)CC2)c1[C@H](OC(C)(C)C)C(=O)O [Example 430, (S)-2-tert-Butoxy-2-(6′-(1,1-difluoro-3-methylbutyl)-4-(4,4-dimethylpiperidin-1-yl)-6-methyl-3, 3′-bipyridin-5-yl)acetic acid]
[1]
  EC50: 16 nM

## Cc1ncc(-c2ccc(OCc3ccc(F)cc3)cn2)c(N2CCC(C)(C)CC2)c1[C@H](OC(C)(C)C)C(=O)O [Example 344, (2S)-2-(tert-butoxy)-2-[4′-(4,4-dimethylpiperidin-1-yl)-5-[(4-fluorophenyl)methoxy]-6′-methyl-[2,3′-bipyridine]-5′-yl]acetic acid]
[1]
  EC50: 2 nM

## Cc1ncc(-c2ccc(OCCc3ccccc3F)cn2)c(N2CCC(C)(C)CC2)c1[C@H](OC(C)(C)C)C(=O)O [Example 303, (2S)-2-(tert-butoxy)-2-[4′-(4,4-dimethylpiperidin-1-yl)-5-[2-(2-fluorophenyl)ethoxy]-6′-methyl-[2,3′-bipyridine]-5′-yl]acetic acid]
[1]
  EC50: 0.6 nM

## Cc1ncc(-c2cc(F)c(F)c(F)c2)c(N2CCC(C)(C)CC2)c1[C@H](OC(C)(C)C)C(=O)O [Example 129, (2S)-2-(tert-Butoxy)-2-[4-(4,4-dimethylpiperidin-1-yl)-2-methyl-5-(3,4,5-trifluorophenyl)pyridin-3-yl]acetic acid]
[1]
  EC50: 3 nM

## Cc1nc(C(=O)NS(=O)(=O)C2CC2)c(-c2ccc(OCCc3ccc(F)cc3)cc2)c(N2CCC(C)(C)CC2)c1[C@H](OC(C)(C)C)C(=O)O [Example 9, (S)-2-(tert-Butoxy)-2-(6-((cyclopropylsulfonyl)carbamoyl)-4-(4,4-dimethylpiperidin-1-yl)-5-(4-(4-fluorophenethoxy)phenyl)-2-methylpyridin-3-yl)acetic acid]
[1]
  EC50: 380 nM

## Cc1ncc(-c2cnc(O[C@@H](C)Cc3ccccc3)c(F)c2)c(N2CCC(C)(C)CC2)c1[C@H](OC(C)(C)C)C(=O)O [Example 379, (2S)-2-(tert-butoxy)-2-[4-(4,4-dimethylpiperidin-1-yl)-5′-fluoro-6-methyl-6′-{[(2S)-1-phenylpropan-2-yl]oxy}-[3,3′-bipyridine]-5-yl]acetic acid]
[1]
  EC50: 2 nM

## CCCCOc1ncc(-c2cnc(C)c([C@H](OC(C)(C)C)C(=O)O)c2N2CCC(C)(C)CC2)cc1F [Example 377, (2S)-2-(tert-butoxy)-2-[6′-butoxy-4-(4,4-dimethylpiperidin-1-yl)-5′-fluoro-6-methyl-[3,3′-bipyridine]-5-yl]acetic acid]
[1]
  EC50: 4 nM

## Cc1ccccc1COc1ccc(-c2cnc(C)c([C@H](OC(C)(C)C)C(=O)O)c2N2CCC(C)(C)CC2)nc1 [Example 346, (2S)-2-(tert-butoxy)-2-[4′-(4,4-dimethylpiperidin-1-yl)-6′-methyl-5-[(2-methylphenyl)methoxy]-[2,3′-bipyridine]-5′-yl]acetic acid]
[1]
  EC50: 5 nM

## Cc1nc(NC2CCOCC2)c(-c2ccc(OCCc3ccc(F)cc3)cc2)c(N2CCC(C)(C)CC2)c1[C@H](OC(C)(C)C)C(=O)O [Example 24, (S)-2-(tert-Butoxy)-2-(4-(4,4-dimethylpiperidin-1-yl)-5-(4-(4-fluorophenethoxy)phenyl)-2-methyl-6-((tetrahydro-2H-pyran-4-yl)amino)pyridin-3-yl)acetic acid]
[1]
  EC50: 2 nM

## Cc1ncc(-c2ccc(OCCc3ccccc3)c(F)c2)c(N2CCC(C)(C)CC2)c1[C@H](OC(C)(C)C)C(=O)O [Example 258, (S)-2-(tert-Butoxy)-2-(4-(4,4-dimethylpiperidin-1-yl)-5-(3-fluoro-4-phenethoxyphenyl)-2-methylpyridin-3-yl)acetic acid]
[1]
  EC50: 1 nM
